Values of other authors, collected in patent US20040096492A1, “Cicatrizant hydrocolloidal patch containing hyaluronic acid and chondroitin sulphate” (priority 2001, published 2004).

System: full thickness (300 mm^2) cutaneous wound
Conditions: rats

sodium chondroitin sulphate
residual area in the treated group relative to the control group (8 days after the second application of 30 mg): half | reduction of the damaged surface (planimetry) (one or two applications of 30 mg, vs control): more rapid | clinical signs connected with the lesion (edema-exudate) (vs control): decreased more quickly
